The assay relates to P. aeruginosa 6616. The assay is described as follows: Photodynamic inactivation of Pseudomonas aeruginosa, re-seeding on MHA to control inactivation. To be noted: initial dose 10 lg CFU/ml, 5 min, 500 μV/ml. Format: cell-based.
Setting [1] is: photosensitizer 1 nM/L, 320 nm for flavins, 560 nm for phenothiazines and porphyrins.
The mark [2] stands for this setting: photosensitizer 5 nM/L, 320 nm for flavins, 560 nm for phenothiazines and porphyrins.
Where [3] appears, read: photosensitizer 10 nM/L, 320 nm for flavins, 560 nm for phenothiazines and porphyrins.
The mark [4] stands for this setting: photosensitizer 20 nM/L, 320 nm for flavins, 560 nm for phenothiazines and porphyrins.
The mark [5] stands for this setting: photosensitizer 40 nM/L, 320 nm for flavins, 560 nm for phenothiazines and porphyrins.
Where [6] appears, read: photosensitizer 80 nM/L, 320 nm for flavins, 560 nm for phenothiazines and porphyrins.
[7] abbreviates: photosensitizer 160 nM/L, 320 nm for flavins, 560 nm for phenothiazines and porphyrins.
The mark [8] stands for this setting: photosensitizer 320 nM/L, 320 nm for flavins, 560 nm for phenothiazines and porphyrins.
Where [9] appears, read: photosensitizer 640 nM/L, 320 nm for flavins, 560 nm for phenothiazines and porphyrins.
Where [10] appears, read: photosensitizer 1280 nM/L, 320 nm for flavins, 560 nm for phenothiazines and porphyrins.
Setting [11] is: wavelength 180 nm, photoinactivator 40 μM/L.
The mark [12] stands for this setting: wavelength 220 nm, photoinactivator 40 μM/L.
Setting [13] is: wavelength 260 nm, photoinactivator 40 μM/L.
The mark [14] stands for this setting: wavelength 320 nm, photoinactivator 40 μM/L.
Where [15] appears, read: wavelength 360 nm, photoinactivator 40 μM/L.
Setting [16] is: wavelength 400 nm, photoinactivator 40 μM/L.
The mark [17] stands for this setting: wavelength 440 nm, photoinactivator 40 μM/L.
The mark [18] stands for this setting: wavelength 480 nm, photoinactivator 40 μM/L.
Setting [19] is: wavelength 520 nm, photoinactivator 40 μM/L.
Setting [20] is: wavelength 560 nm, photoinactivator 40 μM/L.
The mark [21] stands for this setting: wavelength 600 nm, photoinactivator 40 μM/L.
[22] abbreviates: wavelength 640 nm, photoinactivator 40 μM/L.
The mark [23] stands for this setting: wavelength 680 nm, photoinactivator 40 μM/L.
Where [24] appears, read: wavelength 720 nm, photoinactivator 40 μM/L.

Take `Cc1cc2nc3c(=O)[nH]c(=O)nc-3n(C[C@H](O)[C@H](O)[C@H](O)COP(=O)(O)OP(=O)(O)OC[C@H]3O[C@@H](n4cnc5c(N)ncnc54)[C@H](O)[C@@H]3O)c2cc1C` [Riboflavin dinucleotide]: the “lg CFU/ml after treatment” value is 3 lg CFU/ml under setting [1]; 0 lg CFU/ml under setting [2]; 0 lg CFU/ml under setting [3]; 0 lg CFU/ml under setting [4]; 0 lg CFU/ml under setting [5]; 0 lg CFU/ml under setting [6]. Moreover, the “lg CFU/ml after treatment” value is reported as 0 lg CFU/ml under setting [7], 0 lg CFU/ml under setting [8] and 0 lg CFU/ml under setting [9].

As for `Cc1cc(=[N+](C)C)cc2sc3cc(N(C)C)cc(C)c3nc1-2.[Cl-]` [Dimethylmethylene blue], the “lg CFU/ml after treatment” value reads like this: under setting [1], 2 lg CFU/ml; under setting [2], 1 lg CFU/ml; under setting [3], 1 lg CFU/ml; under setting [4], 1 lg CFU/ml; under setting [5], 0 lg CFU/ml; under setting [6], 0 lg CFU/ml. Besides, the “lg CFU/ml after treatment” value is, setting by setting: under setting [7], 0 lg CFU/ml; under setting [8], 0 lg CFU/ml; under setting [9], 0 lg CFU/ml; under setting [10], 1 lg CFU/ml.

Regarding `C=CC1=C(C)c2cc3[n-]c(cc4[n-]c(cc5nc(cc1n2)C(C)=C5C=C)c(C)c4CCC(=O)O)c(CCC(=O)O)c3C.[Fe+2]` [Heme], the “lg CFU/ml after treatment” value reads like this: under setting [1], 3 lg CFU/ml; under setting [2], 2 lg CFU/ml; under setting [3], 2 lg CFU/ml; under setting [4], 1 lg CFU/ml; under setting [5], 0 lg CFU/ml; under setting [6], 0 lg CFU/ml. Further, the “lg CFU/ml after treatment” value is, setting by setting: under setting [7], 0 lg CFU/ml; under setting [8], 0 lg CFU/ml; under setting [9], 0 lg CFU/ml.

Consider `C=Cc1c(C)c2cc3nc(c4c5[n-]c(cc6nc(cc1[n-]2)C(C)=C6CC)c(C)c5C(=O)[C@@H]4C(=O)OC)[C@@H](CCC(=O)OC/C=C(\C)CCC[C@H](C)CCC[C@H](C)CCCC(C)C)[C@@H]3C.[Mg+2]` [Chlorophyll alpha (on TWEEN-80), Chlorophyll alpha], for which the “lg CFU/ml after treatment” value by setting is: under setting [1], 2 lg CFU/ml; under setting [2], 2 lg CFU/ml; under setting [3], 1 lg CFU/ml; under setting [4], 1 lg CFU/ml; under setting [5], 0 lg CFU/ml; under setting [6], 0 lg CFU/ml. For the same molecule, the “lg CFU/ml after treatment” value runs as follows: under setting [7], 0 lg CFU/ml; under setting [8], 0 lg CFU/ml; under setting [9], 0 lg CFU/ml; under setting [11], 9 lg CFU/ml; under setting [12], 9 lg CFU/ml; under setting [13], 10 lg CFU/ml. For the same molecule, the “lg CFU/ml after treatment” value runs as follows: under setting [14], 10 lg CFU/ml; under setting [15], 10 lg CFU/ml; under setting [16], 9 lg CFU/ml; under setting [17], 9 lg CFU/ml; under setting [18], 6 lg CFU/ml; under setting [19], 7 lg CFU/ml. Moreover, the “lg CFU/ml after treatment” value under setting [20] is reported as 0 lg CFU/ml; the “lg CFU/ml after treatment” value under setting [21] was 0 lg CFU/ml; the “lg CFU/ml after treatment” value under setting [22] came out at 4 lg CFU/ml; the “lg CFU/ml after treatment” value under setting [23] was found to be 6 lg CFU/ml; the “lg CFU/ml after treatment” value under setting [24] is given as 9 lg CFU/ml.

On to `Cc1cc2nc3ccc(N(C)C)cc3[s+]c2cc1N.[Cl-]` [Toluidine Blue], for which the “lg CFU/ml after treatment” value amounted to 6 lg CFU/ml under setting [1]; 2 lg CFU/ml under setting [2]; 1 lg CFU/ml under setting [3]; 1 lg CFU/ml under setting [4]; 0 lg CFU/ml under setting [5]; 0 lg CFU/ml under setting [6]. For the same molecule, the “lg CFU/ml after treatment” value reads like this: under setting [7], 0 lg CFU/ml; under setting [8], 0 lg CFU/ml; under setting [9], 0 lg CFU/ml; under setting [10], 2 lg CFU/ml.

Take `CN(C)c1ccc2nc3ccc(=[N+](C)C)cc-3sc2c1` [Methylene blue]: the “lg CFU/ml after treatment” value is, setting by setting: under setting [1], 6 lg CFU/ml; under setting [2], 2 lg CFU/ml; under setting [3], 1 lg CFU/ml; under setting [4], 1 lg CFU/ml; under setting [5], 0 lg CFU/ml; under setting [6], 0 lg CFU/ml. Further, the “lg CFU/ml after treatment” value is recorded as 0 lg CFU/ml under setting [7]; 0 lg CFU/ml under setting [8]; 0 lg CFU/ml under setting [9]; 2 lg CFU/ml under setting [10]; 10 lg CFU/ml under setting [11]; 9 lg CFU/ml under setting [12]. The “lg CFU/ml after treatment” value worked out at 8 lg CFU/ml under setting [13]; 9 lg CFU/ml under setting [14]; 9 lg CFU/ml under setting [15]; 9 lg CFU/ml under setting [16]; 9 lg CFU/ml under setting [17]; 7 lg CFU/ml under setting [18]. The “lg CFU/ml after treatment” value under setting [19] came out at 4 lg CFU/ml; the “lg CFU/ml after treatment” value under setting [20] turned out to be 3 lg CFU/ml; the “lg CFU/ml after treatment” value under setting [21] worked out at 3 lg CFU/ml; the “lg CFU/ml after treatment” value under setting [22] is reported as 0 lg CFU/ml; the “lg CFU/ml after treatment” value under setting [23] is 0 lg CFU/ml; the “lg CFU/ml after treatment” value under setting [24] is reported as 0 lg CFU/ml.

As to `Cc1cc2nc3c(=O)[nH]c(=O)nc-3n(C[C@H](O)[C@H](O)[C@H](O)COP(=O)(O)O)c2cc1C` [Riboflavin mononucleotide], the “lg CFU/ml after treatment” value runs as follows: under setting [1], 4 lg CFU/ml; under setting [2], 1 lg CFU/ml; under setting [3], 0 lg CFU/ml; under setting [4], 0 lg CFU/ml; under setting [5], 0 lg CFU/ml; under setting [6], 0 lg CFU/ml. For the same molecule, the “lg CFU/ml after treatment” value by setting is: under setting [7], 0 lg CFU/ml; under setting [8], 0 lg CFU/ml; under setting [9], 0 lg CFU/ml.

Cyanocobalamin: the “lg CFU/ml after treatment” value amounted to 6 lg CFU/ml under setting [1]; 5 lg CFU/ml under setting [2]; 4 lg CFU/ml under setting [3]; 4 lg CFU/ml under setting [4]; 4 lg CFU/ml under setting [5]; 2 lg CFU/ml under setting [6]. Further, the “lg CFU/ml after treatment” value was determined as 3 lg CFU/ml under setting [7], 2 lg CFU/ml under setting [8] and 0 lg CFU/ml under setting [9].

Values taken from patent publication US11213579B2, “Vaccines with enhanced immunogenicity, low allergenicity and reactogenicity” (priority 2018, dated 2022).
